What all share (test): NCI tumour cell line growth inhibition, 48 h
Assay [1] concerns 786-0.
For assay [2], the system named is A498.
The test system of assay [3] is BT-549.
Assay [4] has as its system CAKI-1.
Assay [5] deals with DU-145.
The test system of assay [6] is HCC 2998.
Assay [7] relates to HT-29.
The test system of assay [8] is MDA-N.
Assay [9] concerns NCI-H460.
The subject of assay [10] is NCI/ADR-RES.
Assay [11] deals with OVCAR-3.
For assay [12], the system named is OVCAR-4.
In assay [13] the test system is OVCAR-5.
The test system of assay [14] is PC-3.
Assay [15] concerns RPMI-8226.
The subject of assay [16] is SR.
For assay [17], the system named is T47D.
In assay [18] the test system is UACC-257.
In assay [19] the test system is UACC-62.
Assay [20] deals with ACHN.

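Results reflect a 48-hour exposure of cells in 96-well plates to compound at five concentrations. GI50 = concentration required for 50% inhibition of growth.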 Active and inactive are the calls of the source. Rule as the data show it: active = GI50 up to about 1.1 µM and inactive = higher.

In the case of `NC1=NC(NCC2(CO)CCC2)=CC(OCC2(CO)CCC2)N1` (centres undefined), the GI50 in assay [1], in assay [2], in assay [3], in [4], in [5] and in [6] was > 100 µM (inactive) in each case. The GI50 in assay [7], in [8], in [9], in assay [10], in assay [11] and in assay [12] was > 100 µM (inactive) each time. The GI50 was > 100 µM (inactive) in assay [13]; > 100 µM (inactive) in assay [14]; > 100 µM (inactive) in assay [15]; 82.8 µM (inactive) in assay [16]; 62.2 µM (inactive) in assay [17]; > 100 µM (inactive) in assay [18]. In assay [19], the GI50 was > 100 µM (inactive).
Take `Cc1ccc(NC(=O)c2cccc(OP(=O)(Nc3ccc(C)cc3)Nc3ccc(C)cc3)c2)cc1`: the GI50 was 19.9 µM (inactive) in assay [1]; 18.1 µM (inactive) in [2]; 4 µM (inactive) in assay [20]; 22.2 µM (inactive) in assay [3]; 12.8 µM (inactive) in [4]; 53.3 µM (inactive) in assay [5]. Further, the GI50 in [6] is 5.21 µM (inactive); in assay [7] it was 3.5 µM (inactive); in assay [8] it was 3.78 µM (inactive); in assay [9], 3.88 µM (inactive); in assay [10], 12 µM (inactive); in assay [11], 5.83 µM (inactive). Also, the GI50 in [12] is 14 µM (inactive); in [13] it was 38.5 µM (inactive); in assay [14], 7.78 µM (inactive); in assay [16], 3.4 µM (inactive); in assay [17] it was 5.53 µM (inactive); in [18], 11.9 µM (inactive). For the same compound, in assay [19], the GI50 is 20.3 µM (inactive).
Take `N=C(N)N/N=C/c1nc2sccn2c1[N+](=O)[O-]`: the GI50 in assay [1] is 43 µM (inactive); in [2], 56.1 µM (inactive); in assay [20], 60.3 µM (inactive); in assay [3], 39.9 µM (inactive); in assay [4], > 100 µM (inactive); in [5], 22.3 µM (inactive). Also, the GI50 was 26.2 µM (inactive) in assay [7]; 19.6 µM (inactive) in [8]; 18.5 µM (inactive) in assay [9]; > 100 µM (inactive) in assay [10]; 17.9 µM (inactive) in assay [11]; 13.7 µM (inactive) in assay [12]. The GI50 in [13] was > 100 µM (inactive); in assay [14], 35.2 µM (inactive); in [15], 82.4 µM (inactive); in assay [16], 33.2 µM (inactive); in assay [17] it was 18.2 µM (inactive); in assay [18] it was 16.3 µM (inactive). Besides, the GI50 in assay [19] was 30.9 µM (inactive).
For the compound `O=C1/C(=C/c2ccc(Cl)cc2)CSc2ccccc21`, the GI50 was 17.5 µM (inactive) in assay [1]; 62.5 µM (inactive) in assay [2]; 27 µM (inactive) in assay [3]; 19.4 µM (inactive) in assay [4]; 38.2 µM (inactive) in assay [5]; 19.4 µM (inactive) in assay [7]. The GI50 was 5.78 µM (inactive) in assay [8]; 28.7 µM (inactive) in [9]; 16.6 µM (inactive) in [10]; 22.3 µM (inactive) in assay [11]; 36.1 µM (inactive) in [12]; 14.1 µM (inactive) in assay [14]. The GI50 in [15] is 2.31 µM (inactive); in [16], 5 µM (inactive); in [17], 28 µM (inactive); in assay [18], 12.7 µM (inactive); in [19] it was 3.34 µM (inactive).
As for `N/C(=N\c1ccc(Cl)cc1)NS(=O)(=O)c1cc(Cl)c(Oc2ccc([N+](=O)[O-])cc2Cl)c(Cl)c1`, the GI50 was 18.9 µM (inactive) in [1]; 15.5 µM (inactive) in assay [2]; 16 µM (inactive) in assay [20]; 17.4 µM (inactive) in assay [3]; 17.2 µM (inactive) in assay [4]; 15.7 µM (inactive) in [5]. Further, the GI50 in [7] was 20.4 µM (inactive); in assay [8] it was 18.2 µM (inactive); in assay [9], 18.4 µM (inactive); in assay [10] it was 17.2 µM (inactive); in [11], 16.8 µM (inactive); in assay [12], 16 µM (inactive). Further, the GI50 in assay [13] is 19.7 µM (inactive); in assay [14], 16.2 µM (inactive); in assay [16], 18.9 µM (inactive); in assay [17] it was 14.8 µM (inactive); in assay [18] it was 16.6 µM (inactive); in [19], 12.2 µM (inactive).
Regarding `O=[N+]([O-])c1cn[n+]([O-])c2ccccc12`, the GI50 in [1] is 2.43 µM (inactive); in assay [2] it was 23.1 µM (inactive); in assay [20], 1.13 µM (inactive); in assay [3], 5.22 µM (inactive); in [4] it was 2.56 µM (inactive); in assay [5], 1.05 µM (active). For the same compound, the GI50 was 1.7 µM (inactive) in [6]; 4.65 µM (inactive) in [7]; 13.6 µM (inactive) in assay [8]; 4.61 µM (inactive) in assay [9]; 5.14 µM (inactive) in assay [10]; 2.55 µM (inactive) in [11]. For the same compound, the GI50 in assay [13] is 12.4 µM (inactive); in assay [14], 8.28 µM (inactive); in assay [15], 2.03 µM (inactive); in assay [16], 0.403 µM (active); in assay [17], 3.7 µM (inactive); in [18], 11.4 µM (inactive).
Consider `CN(C(=O)Cc1ccc(Cl)c(Cl)c1)[C@H]1CCCC[C@@H]1[N+]1(C)CCCC1`, for which the GI50 in assay [1], in [2], in [20], in assay [3], in [4] and in assay [5] was > 100 µM (inactive) in each case. The GI50 in [7], in assay [8], in [10], in [11], in assay [12] and in assay [13] was > 100 µM (inactive) in each case. The GI50 in assay [14], in assay [15], in assay [16], in assay [17], in [18] and in assay [19] was > 100 µM (inactive) each time.
`CCOP1(=O)OCC2OC(n3cnc4c(N)ncnc43)C(O)C2O1.c1ccccc1` (centres undefined): the GI50 in assay [1], in [2], in [20], in assay [3], in assay [4] and in [5] was > 100 µM (inactive) in each case. The GI50 in assay [7], in assay [8], in [9], in assay [10], in [11] and in [12] was > 100 µM (inactive) throughout. Moreover, the GI50 in assay [13], in [14], in assay [15], in assay [16], in assay [17] and in assay [18] was > 100 µM (inactive) each time. Moreover, the GI50 in assay [19] was > 100 µM (inactive).
Turning to `O=c1[nH][nH]c(=S)c(=O)[nH]1`, the GI50 in [1], in assay [2], in [20], in assay [3], in assay [4] and in assay [5] was > 100 µM (inactive) each time. Moreover, the GI50 in assay [7], in assay [8], in assay [9], in assay [10], in assay [11] and in assay [12] was > 100 µM (inactive) each time. In addition, the GI50 in [13], in assay [14], in assay [15], in assay [16], in assay [17] and in [18] was > 100 µM (inactive) throughout. Further, the GI50 in assay [19] was > 100 µM (inactive).
On to `CCC1OC2C(CC=C(C)C)=C3OC(C)(O)C(C)(CC)C(OC(=O)c4ccccc4)C3=C3OC(=O)C=C1C32` (centres undefined), for which the GI50 was 41.7 µM (inactive) in [1]; 40.3 µM (inactive) in assay [2]; 39.6 µM (inactive) in assay [20]; 19.1 µM (inactive) in [3]; 36.6 µM (inactive) in assay [4]; 32.7 µM (inactive) in assay [5]. Further, the GI50 in assay [6] was 21.8 µM (inactive); in assay [7], 40.8 µM (inactive); in assay [8], 20.5 µM (inactive); in assay [9], 46.9 µM (inactive); in assay [10], 36.3 µM (inactive); in assay [11], 51.6 µM (inactive). The GI50 is 54.1 µM (inactive) in assay [13]; 40.1 µM (inactive) in [14]; 24.7 µM (inactive) in assay [15]; 59.8 µM (inactive) in assay [16]; 29 µM (inactive) in assay [17]; 38.4 µM (inactive) in assay [18]. In assay [19], the GI50 was 30.5 µM (inactive).
As to `Cc1cc(C)c2nc3c(c(C(O)C4CCCCN4)c2c1)CC/C3=C\c1ccc(Cl)cc1` (centres undefined), the GI50 is 67.8 µM (inactive) in assay [1]; > 100 µM (inactive) in assay [2]; 78.3 µM (inactive) in [20]; > 100 µM (inactive) in [3]; 94.6 µM (inactive) in assay [4]; 81.1 µM (inactive) in assay [5]. In addition, the GI50 is 30.4 µM (inactive) in assay [7]; 50.4 µM (inactive) in assay [8]; 32.6 µM (inactive) in assay [9]; 52.1 µM (inactive) in assay [10]; 42.1 µM (inactive) in assay [11]; 58.9 µM (inactive) in assay [12]. The GI50 in assay [13] is 41.1 µM (inactive); in [14], 54.1 µM (inactive); in assay [15], 40.7 µM (inactive); in [16], 34.2 µM (inactive); in assay [17] it was 30.3 µM (inactive); in assay [18], 32.8 µM (inactive). For the same compound, the GI50 in assay [19] was 65 µM (inactive).

The values are drawn from ChEMBL document CHEMBL1201862, “PubChem BioAssay data set” (2004).
